Measurements: paper PMC12682947, “Identification of New KCNT1‐Epilepsy Drugs by In Silico, Cell, and Drosophila Modeling” (Annals of Neurology, 2025)
Values joined by “and” are separate entries in the source; they are usually repeats but may differ in a detail not shown here. Equal values may be shown once. “Also recorded” adds a separate entry of the source. Read-outs that look alike come from different tables or passages of the source.

Assay: Plasma pharmacokinetics and brain uptake of antrafenine in mice (LC-MS)
Type: in vivo, male C57BL/6 mice
Protocol: Plasma pharmacokinetics and brain uptake of antrafenine was analyzed in male C57BL/6 mice. Antrafenine was administered intravenously at 1 mg/kg and 3 mg/kg into the tail vein and plasma was collected over a 24‐hour sampling period (n = 3 mice/time point). Following administration, the brain was harvested at 4 times over 24 hours and snap frozen in dry ice and subsequently stored frozen (−80°C) until analysis. The concentration of antrafenine was determined using liquid chromatography–mass spectrometry. The in vivo study was conducted using established procedures in accordance with the Australian Code of Practice for the Care and Use of Animals for Scientific Purposes, and the study protocols were reviewed and approved by the Monash Institute of Pharmaceutical Sciences Animal Ethics Committee. See Supporting Information for detailed methods and results. […]
Plasma pharmacokinetics and brain uptake of antrafenine was analyzed in male C57BL/6 mice by the Monash University Centre for Drug Candidate Optimisation. Antrafenine was administered intravenously at 1 mg/kg and 3 mg/kg into the tail vein and plasma was collected over a 24 h sampling period (n=3 mice/time point). Following administration, brain was harvested at four times over 24 hours and snap frozen in dry ice and subsequently stored frozen (-80°C) until analysis. The concentration of antrafenine was determined using liquid chromatography–mass spectrometry (LC-MS).
4 hrs post IV administration of 3 mg/kg Antrafenine was taken as a representative time to compare plasma and brain concentrations. At 4 hrs we determined a mean plasma concentration of 47.5 nM (+5.9 nM SD) and a mean brain concentration of 13.9 nM (+3 nM SD). […]
Plasma pharmacokinetics and brain uptake of antrafenine
The systemic exposure of antrafenine was studied in non-fasted male C57BL/6 mice weighing 19.8 – 24.6 g. Mice had access to food and water ad libitum throughout the pre- and post-dose period. Antrafenine hydrochloride Mw 588.554 (Lot#10-KSS-51-2) was obtained from Toronto Research Chemicals/LGC Standards, Canada, and was dissolved in vehicle; 5% (v/v) DMSO, 25% (v/v) 40% (w/v) Trappsol in 0.9% (w/v) saline, 70% (v/v) 40 mM citrate buffered saline at pH 3.5 at concentrations of 0.5 mg/mL and 1.5 mg/mL.
On the day of dosing, each formulation was prepared by dissolving solid antrafenine in DMSO using vortexing and sonication prior to addition of 40% (w/v) Trappsol in 0.9% (w/v) saline followed by 40 mM citrate-buffered saline at pH 3.5. Each sample was vortexed to create a colorless / light yellow solution and was filtered through a 0.22 µm syringe filter prior to dosing.
Administration of antrafenine was performed by a single bolus IV injection into the tail vein of C57BL/6 male mice using a 1ml syringe with a 25G x 1” needle at a volume of 2 mL/kg. Each […]
formulation was dosed to mice by bolus injection into the lateral tail vein (2 mL/kg) and blood samples were collected at 1, 2, 5, 15 and 30 min; 1, 2, 4, 7.5 and 24 h post-dose (n=3 mice per time point for each formulation). A maximum of three blood samples were obtained from each mouse, with plasma samples being taken via submandibular bleed (approximately 120 μL).
Blood was collected into polypropylene Eppendorf tubes containing heparin as anticoagulant and stabilization cocktail (Complete® (containing a protease inhibitor cocktail and EDTA) and potassium fluoride) to minimize the potential for ex vivo compound degradation in blood/plasma samples. Once collected, blood samples were centrifuged immediately, supernatant plasma was removed, snap frozen in dry ice and stored at -80°C until analysis by LC-MS. In addition, at the 15 min, 1, 4 and 24 h post-dose time points, the whole brain was rapidly removed from the carcass soon after the blood collection. The whole brains were blotted to remove excess blood, placed into pre-weighed polypropylene vials and weighed. The brains were snap frozen in dry […]

[1] = IV 1 mg/kg, 0.25 h, individual mice, 1 mg/kg
[2] = IV 1 mg/kg, 1 h, individual mice, 1 mg/kg
[3] = IV 1 mg/kg, 4 h, individual mice, 1 mg/kg
[4] = IV 3 mg/kg, 0.25 h, individual mice, 3 mg/kg
[5] = IV 3 mg/kg, 1 h, individual mice, 3 mg/kg
[6] = IV 3 mg/kg, 4 h, individual mice, 3 mg/kg

Structure (SMILES): O=C(OCCN1CCN(c2cccc(C(F)(F)F)c2)CC1)c1ccccc1Nc1ccnc2cc(C(F)(F)F)ccc12 [antrafenine]
- detection in brain at 24 h (24 h post-dose, either dose level (1 and 3 mg/kg IV)): not detected
- B:P ratio Individual [1]: 0.027 and 0.094 and 0.028
- Plasma Concentration Individual [1]: 233 nM and 344 nM
- concentration at 4 h (IV 1 mg/kg, 0.25 h, individual mice, 1 mg/kg, read-out: Brain Parenchyma Concentration Individual): 8.5 nM and 22 nM and 9.5 nM
- B:P ratio Individual [2]: 0.087 and 0.046 and 0.096
- Plasma Concentration Individual [2]: 112 nM and 104 nM
- concentration at 4 h (IV 1 mg/kg, 1 h, individual mice, 1 mg/kg, read-out: Brain Parenchyma Concentration Individual): 10.5 nM and 5.2 nM and 9.9 nM
- B:P ratio Individual [3]: 0.46 and 0.26 and 0.17
- Plasma Concentration Individual [3]: 14 nM and 12.9 nM
- concentration at 4 h (IV 1 mg/kg, 4 h, individual mice, 1 mg/kg, read-out: Brain Parenchyma Concentration Individual): 5.7 nM and 3.7 nM and 2.2 nM
- Plasma Concentration Individual (IV 1 mg/kg, 24 h, individual mice, 1 mg/kg): 1.6 nM and 1.8 nM
- B:P ratio Individual [4]: 0.038 and 0.048
- Plasma Concentration Individual [4]: 705 nM and 648 nM
- concentration at 4 h (IV 3 mg/kg, 0.25 h, individual mice, 3 mg/kg, read-out: Brain Parenchyma Concentration Individual): 26.6 nM and 30.9 nM
- B:P ratio Individual [5]: 0.087 and 0.10
- Plasma Concentration Individual [5]: 208 nM and 349 nM
- concentration at 4 h (IV 3 mg/kg, 1 h, individual mice, 3 mg/kg, read-out: Brain Parenchyma Concentration Individual): 40.2 nM and 18.2 nM and 35.8 nM
- B:P ratio Individual [6]: 0.30 and 0.25
- Plasma Concentration Individual [6]: 41.9 nM and 47.1 nM
- concentration at 4 h (IV 3 mg/kg, 4 h, individual mice, 3 mg/kg, read-out: Brain Parenchyma Concentration Individual): 12.7 nM and 11.7 nM
- Plasma Concentration Individual (IV 3 mg/kg, 24 h, individual mice, 3 mg/kg): 8.8 nM and 5.1 nM
- adverse reactions / toxic effects in mice (IV at 1 and 3 mg/kg): No adverse reactions or compound-related side effects were observed; also recorded: No toxic effects
- apparent plasma clearance (in words) (IV at 1 and 3 mg/kg): low
- volume of distribution (in words) (IV at 1 and 3 mg/kg): high
- concentration at 4 h (male, C57BL/6, mouse, brain parenchyma, iv, 3 mg/kg, IV 3 mg/kg, 4 h, individual mice, read-out: Brain Parenchyma Concentration Individual): 17.3 nM
- concentration at 4 h (male, C57BL/6, mouse, brain parenchyma, iv, 3 mg/kg, IV 3 mg/kg, 4 h, n = 3, read-out: Brain Parenchyma Concentration Mean ± SD): 13.9 nM
- Kp at 0.25 h (male, C57BL/6, mouse, brain, iv, 1 mg/kg, IV 1 mg/kg, 0.25 h, n = 3, read-out: B:P ratio Mean ± SD): 0.05
- concentration at 0.25 h (male, C57BL/6, mouse, brain, iv, 1 mg/kg, IV 1 mg/kg, 0.25 h, n = 3, read-out: Brain Parenchyma Concentration Mean ± SD): 13.3 nM
- Kp at 1 h (male, C57BL/6, mouse, brain, iv, 1 mg/kg, IV 1 mg/kg, 1 h, n = 3, read-out: B:P ratio Mean ± SD): 0.076
- concentration at 1 h (male, C57BL/6, mouse, brain, iv, 1 mg/kg, IV 1 mg/kg, 1 h, n = 3, read-out: Brain Parenchyma Concentration Mean ± SD): 8.5 nM
- Kp at 4 h (male, C57BL/6, mouse, brain, iv, 1 mg/kg, IV 1 mg/kg, 4 h, n = 3, read-out: B:P ratio Mean ± SD): 0.3 ± 0.15
- concentration at 4 h (male, C57BL/6, mouse, brain, iv, 1 mg/kg, IV 1 mg/kg, 4 h, n = 3, read-out: Brain Parenchyma Concentration Mean ± SD): 3.9 nM
- Kp at 0.25 h (male, C57BL/6, mouse, brain, iv, 3 mg/kg, IV 3 mg/kg, 0.25 h, individual mice, read-out: B:P ratio Individual): 0.042
- concentration at 0.25 h (male, C57BL/6, mouse, brain, iv, 3 mg/kg, IV 3 mg/kg, 0.25 h, individual mice, read-out: Brain Parenchyma Concentration Individual): 31.1 nM
- Kp at 0.25 h (male, C57BL/6, mouse, brain, iv, 3 mg/kg, IV 3 mg/kg, 0.25 h, n = 3, read-out: B:P ratio Mean ± SD): 0.042
- concentration at 0.25 h (male, C57BL/6, mouse, brain, iv, 3 mg/kg, IV 3 mg/kg, 0.25 h, n = 3, read-out: Brain Parenchyma Concentration Mean ± SD): 29.5 nM
